The text below walks through data of patent US7468421B2, “Depilatories and agents for external use” (Kao Corporation, priority 1999, dated 2008).

Where no end group is shown, it is not given here.

The test system of test [1] is dorsal part of a guinea pig. As to the kind of experiment: Depilation inducing effects of endothelin, intracutaneous administration. Format: in vivo. The following applies: 0.3 μg intracutaneously, 50 μL/site, 10 days after the administration. On the procedure:
A solution of endothelin-1 (0.3 μg) in phosphate buffer solution (PBS), which contained 0.1% of bovine serum albumin (BSA), was intracutaneously administered (at 50 μL/site) to the dorsal part of a guinea pig.

In test [2] the test system is growth-phase hair follicles. Briefly: Growth-phase hair follicle inhibitory effects of endothelin, count of hair shafts. Format: in vivo, guinea pig. The note with it: 1 μg intracutaneously, 50 μL/site, fifth day after the administration. Here is the method: Solutions (1 μg, each) of endothelin-1, endothelin-2 and endotherin-3 in aliquots of phosphate buffer solution (PBS), which contained 0.1% of bovine serum albumin (BSA), were intracutaneously administered (at 50 μL/site) to the dorsal parts of guinea pigs, respectively, from which hair had been cut off by a hair clipper. Three days after the administration, hair was again cut off by a hair clipper from the administered sites. Two days after the cutting, the numbers of hair shafts grown per unit area at the administered sites were counted.

In test [3] the test system is growth-phase hair follicle. Briefly: Structural changes of hair follicle structure by the administration of endothelin, hematoxylin-eosin staining. Format: in vivo, guinea pig. The following applies: 0.3 μg intracutaneously. Here is the method:
A solution of endothelin-1 (0.3 μg) in phosphate buffer solution (PBS), which contained 1.1% of bovine serum albumin (BSA), was intracutaneously administered (at 50 μL/site) to the dorsal part of a guinea pig. After that, samples were collected day after day from the administered dorsal skin, and tissue samples were prepared by hematoxylin-eosin staining.

In test [4] the test system is endothelin-induced depilation spot. Briefly: Concurrent administration of endothelin inhibitor on the endothelin-induced formation of depilation spot. Format: in vivo, guinea pig. The note with it: 10 days after the administration; endothelin-1 0.3 μg, PD142893 10 μg, intracutaneous. On the procedure:
As described in Example 1, endothelin (0.3 μg) was intracutaneously administered to the dorsal part of each guinea pig, and PD142893 (10 μg) as an endothelin inhibitor was also administered concurrently.
The size of a depilation spot formed 10 days after the administration was determined in terms of a product of its long diameter and short diameter.

The subject of test [5] is hair follicle organs in growth phase from a human scalp tissue. As to the kind of experiment: Growth inhibitory effects on organ-cultured hair follicles. Format: cell-based. On the procedure: From a human scalp tissue, hair follicle organs in growth phase were surgically isolated under a stereomicroscope. Following a conventional procedure [Philpott M. P., et al., J. Cell Sci., 97, 463-471 (1990)], the isolated hair follicles were subjected to organ culture. Described specifically, endothelin-1 was added to William's E medium which contained L-glutamine (2 mM), hydrocortisone (10 ng/mL), insulin (10 μg/mL), sodium selenite (10 ng/mL) and transferrin (10 μg/mL).

Test [6] has as its system C3H/HeNCrj mouse. As to the kind of experiment: Hair growth test in mice. Format: in vivo. The note with it: 0.5 mg in 2.5 mL PEG 400/PEG 3350 (95/5), 25 μL/application once a day over 2 weeks, applied to depilated dorsal skin. On the procedure: Endothelin-1 (0.5 mg) was dissolved in a mixed solution (2.5 mL) of polyethylene glycol 400 (average molecular weight: 400) and polyethylene glycol 3350 (average molecular weight: 3,350) (mixing ratio: 95/5) to prepare a hair growth inhibitor. Dorsal hair of each 8-week old C3H/HeNCrj mouse was removed with a depilatory cream (over an area of 2×4 cm^2), and the hair growth inhibitor was applied to the depilated site once a day at a dose of 25 μL/application over 2 weeks. A group in which only the solvent was similarly applied was employed as a control group. To observe regrowth of hair, the above-described depilated site on day 14 after the depilation was photographed at a predetermined fixed magnification, and the percentage of a regrown hair area (regrown hair area/depilated area×100) was determined using an image analyzer.

On to `CC[C@H](C)[C@H](NC(=O)[C@H](CC(=O)O)NC(=O)[C@H](CC(C)C)NC(=O)[C@H](Cc1c[nH]cn1)NC(=O)[C@@H]1CSSC[C@H](N)C(=O)N[C@@H](CO)C(=O)N[C@H]2CSSC[C@H](NC(=O)[C@H](CCC(=O)O)NC(=O)[C@H](CCCCN)NC(=O)[C@H](CC(=O)O)NC(=O)[C@H](CCSC)NC(=O)[C@H](CC(C)C)NC(=O)[C@H](CO)NC(=O)[C@H](CO)NC2=O)C(=O)N[C@@H](C(C)C)C(=O)N[C@@H](Cc2ccc(O)cc2)C(=O)N[C@@H](Cc2ccccc2)C(=O)N1)C(=O)N[C@H](C(=O)N[C@@H](Cc1c[nH]c2ccccc12)C(=O)O)[C@@H](C)CC` [Endothelin-1, endothelin-1], for which the “observation at the administered site (depilation)” value in test [1] was “hair shaft falling-off and formation of a marked depilation spot”. In addition, in test [2], the “number of hair shafts grown per unit area at the administered site” value was “significant (p<0.01) decrease in the number of hair shafts”. The results for the “histological image of hair follicle” value in test [3] (1st day after the administration) and in test [3] (3rd day after the administration) were “regressed image of a growth-phase hair follicle” and “image of a follicular tissue in transition phase”, respectively. Moreover, in test [4], the “Product of long diameter and short diameter of depilation spot (mean ± S.D., N = 6)” value is recorded as 81.47 ± 6.53 mm^2. Further, the “percent regression of growth-phase hair follicles” value turned out to be 0.0% in test [5] (10 ng/mL added endothelin, Day 1 of incubation); 0.0% in test [5] (10 ng/mL added endothelin, Day 2 of incubation); 17.6% in test [5] (10 ng/mL added endothelin, Day 4 of incubation); 35.3% in test [5] (10 ng/mL added endothelin, Day 6 of incubation); 0.0% in test [5] (100 ng/mL added endothelin, Day 1 of incubation); 0.0% in test [5] (100 ng/mL added endothelin, Day 2 of incubation). Moreover, the “percent regression of growth-phase hair follicles” value came to 23.5% in test [5] (100 ng/mL added endothelin, Day 4 of incubation) and 41.2% in test [5] (100 ng/mL added endothelin, Day 6 of incubation). In test [5] (day 4 of incubation and the subsequent days (FIG. 3)), the “grown hair follicle lengths compared with control group” value is on record as “significant hair growth inhibitory effects”. Besides, the “structural change of incubated hair follicles” value in test [5] (during the incubation period (FIG. 4)) is “structural change of the endothelin-treated, growth-phase hair follicles into those similar to resting-phase hair follicles”. For the same compound, the “Percentage of regrown hair area on day 14 after depilation” value in test [6] is on record as 2.22%.

“endothelin-2 (CSCSSWLDKECVYFCHLDIIW; ends and bridges not checked; cysteine pairing not given here; UniProt P20800 49-69, looked up) [peptide composed of 21 amino acid residues; isoform of endothelin]”: the “number of hair shafts grown per unit area at the administered site” value in test [2] is “significant (p<0.01) decrease in the number of hair shafts”.

For the compound “endothelin-3 (CTCFTYKDKECVYYCHLDIIW; ends and bridges not checked; cysteine pairing not given here; UniProt P14138 97-117, looked up) [endotherin-3, peptide composed of 21 amino acid residues; isoform of endothelin]”, the “number of hair shafts grown per unit area at the administered site” value in test [2] was “significant (p<0.01) decrease in the number of hair shafts”.
